Test results: patent US20120295866A1, “Synthesis And Use Of Glycoside Pro-Drug Analogs” (Nutek Pharma Ltd., priority 2011, published 2012)
In brackets after ≈: the same amount, converted by molar mass.

Experiments:
[1] = test system: rats; test: Clinical observations of rats during administration of propofol analogs in the pharmacokinetics study
Experimental: (§1) Blood samples were to be taken pre-dose, during dose and post dose at designated intervals, with the blood quickly processed and stored at −70° C. until analysis.
(§2) Formulations were prepared on the morning of the dosing day and each was passed through a 0.22 μm filter prior to being administered to animals. A standard dose of 0.168 mmol/Kg per analog was administered to each of the rats. […] Analog stability in the formulations was verified by preparing each formulation and harvesting 200 μL aliquots at 0, 1, 2 and 8 hr while standing at room temperature. After harvesting, each sample was immediately frozen in dry ice until analysis; concentrations of test compounds in the samples were examined by HPLC-UV.
(§3) The animals were surgically prepared with indwelling cannula, double cannulation in carotid artery and jugular vein for i.v. infusion. The anesthetic pentobarbital was used during the surgery, and the animals were allowed to recover 3-5 days after surgery before the formulation was dosed. The dose formulation was administered intravenously via the jugular vein cannula. The 16.8 μmol/mL formulation was administered i.v. at a rate of 1 mL/Kg/min for 10 min.

[2] = Pharmacokinetics: concentration of prodrug (or propofol) in rat plasma after intravenous infusion, LC/MS/MS; conditions: for Mean concentration of prodrug and propofol in rat plasma after intravenous infusion administration: analyte = administered compound; for AUC(0-inf) / AUC(0-t) / Cmax / MRT inf / Tmax / Vd / clearance / half-life: male, Sprague-Dawley, rat, plasma, iv, 0.168 mmol/Kg
Experimental: as §1, §2, §3
(§4) Approximately 0.20 mL blood was collected at each designated time point from carotid artery via a catheter. A total of 12 plasma samples were taken from each animal: 1 pre-dose; 2 during the dose (5 into the 10 min infusion and one just prior termination of the 10 min infusion) and 9 post-infusion at 2, 5, 15, 30 min and 1, 2, 3, 4, and 6 hr post-dose. All blood samples were transferred into plastic microcentrifuge tubes containing 5 μL of K2-EDTA (0.5M) as anti-coagulant and placed on ice until processed for plasma. Blood samples were processed for plasma by centrifugation at approximately 5° C. Plasma samples were then stored in 1.5 mL tubes, quick frozen over dry ice and kept at −70±10° C. until LC/MSMS analysis.
(§5) For each, a minimum of 6 standard point curve runs in duplicates, and minimum of 5 standards were back calculated to within ±20% of their nominal concentrations. The LLOQ of each test article in plasma was established and 6 QC samples were included in assay runs of samples to ensure assay performance.
(§6) Plasma concentration versus time data was analyzed by non-compartmental approaches using the WinNonlin software program (version 5.2, Pharsight, Mountain View, Calif.) and the pharmacokinetic parameters T½, CL, Vss, AUC(0-t), AUC(0-inf), MRT, and graphs of plasma concentration versus time calculated for each.

[3] = Pharmacokinetics: concentration of propofol in rat plasma after intravenous infusion of each pro-drug, LC/MS/MS; conditions: for Mean Concentration of Propofol in Rat Plasma After Intravenous Administration: analyte propofol from the administered compound; for pro-drug efficiency, release of propofol: releasing the propofol in a matter of minutes after infusion, rat
Experimental: as §1, §2, §3, §4, §5, §6

[4] = Solubility determination of propofol analogs in D2O by 1H NMR with DSS internal standard; conditions: D2O, water, thermodynamic from solid
Experimental: Thus the soapy-like solutions obtained were diluted until opalescent and diluted further until the opalescence visually disappeared.

[5] = time post-10 min i.v. infusion, 0.168 mmol/Kg

Structure (SMILES) | Clinical Observation: recovered at [1, 5] | Mean concentration of prodrug and propofol in rat plasma after intravenous infusion administration ([2]; Time 0 h (pre-dose)) | Mean concentration of prodrug and propofol in rat plasma after intravenous infusion administration ([2]; Time 3.166 h) | Mean concentration of prodrug and propofol in rat plasma after intravenous infusion administration ([2]; Time 4.166 h) | Mean concentration of prodrug and propofol in rat plasma after intravenous infusion administration ([2]; Time 6.166 h) | AUC(0-inf) [2] [µM·h] | AUC(0-t) [2] [µM·h] | Cmax [2] [µM] | MRT inf [2] [min] | Tmax [2] [min] | Vd [2] [L/kg] | clearance [2] [mL/min/kg] | half-life [2] [min] | Mean Concentration of Propofol in Rat Plasma After Intravenous Administration ([3]; Time 0 h (pre-dose)) | pro-drug efficiency, release of propofol [3] | solubility [4] [mM] | Clinical Observation: Rats soporous at [1, 5] | Mean concentration of prodrug and propofol in rat plasma after intravenous infusion administration ([2]; Time 0.25 h) | Mean concentration of prodrug and propofol in rat plasma after intravenous infusion administration ([2]; Time 0.417 h) | Mean concentration of prodrug and propofol in rat plasma after intravenous infusion administration ([2]; Time 0.667 h) | also measured
CC(C)c1cccc(C(C)C)c1OC(=O)OCCCO[C@@H]1O[C@H](CO)C(O[C@H]2O[C@H](CO)[C@@H](O)[C@H](O)[C@H]2O)[C@H](O)[C@H]1O (stereo partly drawn) [Compound 25, 1-((2′,6′-diisopropylphenoxy)carbonyloxy)propyl-β-D-maltose] | recovered at about 35 min | BQL | BQL | BQL | BQL | 8.57 | 8.57 | 68.4 | 4.62 | 10.2 | 1.51 | 337 | 15.2 | BQL | very efficient pro-drugs | > 20 |  |  |  |  | 
CC(C)c1cccc(C(C)C)c1OC(=O)OCCO[C@H]1O[C@H](CO)[C@@H](O)[C@H](O)[C@H]1O [Compound 32] | recovered at about 26 min | BQL | BQL | BQL | BQL |  | 0.000657 | 0.00538 |  | 8.4 |  |  |  | BQL | very efficient pro-drugs | 13.3 (≈ 5700 µg/mL) | Rats soporous at about 3 min and | BQL | BQL | BQL | Mean concentration of prodrug and propofol in rat plasma after intravenous infusion administration ([2]; Time 1.166 h): BQL; Mean concentration of prodrug and propofol in rat plasma after intravenous infusion administration ([2]; Time 2.166 h): BQL
CC(C)c1cccc(C(C)C)c1OC(=O)OCCCO[C@H]1O[C@H](CO)[C@@H](O)[C@H](O)[C@H]1O [Compound 33] | recovered at about 30 min | BQL | BQL | BQL | BQL |  | 0.00304 | 0.0231 |  | 10.2 |  |  |  | BQL | very efficient pro-drugs | 5.7 (≈ 2520 µg/mL) | Rats soporous at about 3 min and | BQL | BQL | BQL | Mean concentration of prodrug and propofol in rat plasma after intravenous infusion administration ([2]; Time 1.166 h): BQL; Mean concentration of prodrug and propofol in rat plasma after intravenous infusion administration ([2]; Time 2.166 h): BQL; Mean Concentration of Propofol in Rat Plasma After Intravenous Administration ([3]; Time 4.166 h): BQL; Mean Concentration of Propofol in Rat Plasma After Intravenous Administration ([3]; Time 6.166 h): BQL
CC(C)c1cccc(C(C)C)c1O [Propofol, 2,6-diisopropylphenol, reference compound] |  |  |  |  |  | 12.6 | 10.6 | 31.9 | 209 | 10.8 | 61.2 | 265 | 383 | BQL |  | 1.1 (≈ 196 µg/mL) | Rats soporous at about 4 min and |  |  |  | Clinical Observation: recovered at ([1]; time post-10 min infusion, 5% cremophor vehicle): recovered at about 1.5 hr
